The record followed here is patent US20260216294A1, “BETA 2-ADRENERGIC RECEPTOR AGONISTS FOR TREATMENT OR PREVENTION OF MUSCLE WASTING” (ATROGI AB, priority 2023, published 2026).

The structures appear in SMILES notation. Bounds are passed on as bounds.

The subject of assay [1] is L6-myotubes. Kind of assay: Measurement of intracellular cAMP levels in differentiated L6-myotubes (Biological Example 3). To be noted: 0.25 h. It is filed as cell-based. Here is the method: (§1) Compounds described in publications referenced and incorporated herein were screened in accordance with the procedures outlined in Biological example 2 and Biological example 3.
Differentiated L6-myotubes were serum-starved overnight and stimulated with isoprenaline or the test compound with a final concentration of 1×10^−5 M, for 15 min in stimulation buffer (HBSS supplemented with 1% BSA, 5 mM HEPES and 1 mM IBMX, pH 7.4). The medium was aspirated and 100 μL of 95% EtOH was added to each well of the 24-well plate and cells were kept at −20° C. overnight. The EtOH was allowed to evaporate and 500 μL of lysis buffer (1% BSA, 5 mM HEPES and 0.3% Tween-20, pH 7.4) was added to each well. The plate was kept at −80° C. for 30 min and then at −20° C. until the day of detection when the samples were thawed. Intracellular cAMP levels were detected using an alpha screen cAMP kit (6760635D from Perkin Elmer).
(In general: cAMP levels reflect the balance of adenylyl cyclase and phosphodiesterase activity.)

Assay [2] has as its system L6-myotubes. Kind of assay: Glucose uptake in differentiated L6-myotubes (Biological Example 2). In kind it is cell-based. The note with it: for Emax at 10 µM: read-out: Biological example 2 (GU). Here is the method: as §1
Differentiated L6-myotubes were serum-starved overnight in medium containing 0.5% fatty-acid free BSA and stimulated with isoprenaline or the test compound, with a final concentration of 1×10^−5 M. After 1 h 40 min the cells were washed with warm glucose free medium or PBS twice and another portion of agonist was added to the glucose free medium. After 20 min the cells were exposed to 50 nM ^3H-2-deoxyglucose for 10 min before washed with ice cold glucose free medium or PBS three times and lysed with 0.2 M NaOH, 400 μL/well, for 1 h at 60° C. The cell lysate was mixed with 4 mL scintillation buffer (Emulsifier Safe, Perkin Elmer) and the radioactivity was detected in a […] (Tri-Carb 4810TR, Perkin Elmer).

Setting [3] is: intracellular cAMP in differentiated L6-myotubes, compound at 10 μM, activity relative to isoproterenol at 10 μM.
The mark [4] stands for this setting: glucose uptake in differentiated L6-myotubes, compound at 10 μM, activity relative to isoproterenol at 10 μM.
The mark [5] stands for this setting: intracellular cAMP, compound at 10 μM relative to isoproterenol at 10 μM.
Setting [6] is: glucose uptake, compound at 10 μM relative to isoproterenol at 10 μM.

As for `CC(=O)N[C@H]1CC[C@@H](CC(C)(C)NC[C@H](O)c2cncc(F)c2)CC1` [Compound 467], the results for the Emax at 10 µM in the assay on L6-myotubes [1] (setting [3]) and in the assay on L6-myotubes [2] (setting [4]) were less than 25% and greater than 75%, respectively.

Regarding `CCCCNCC(O)c1cc(Cl)c(O)c(Cl)c1` (stereo not drawn) [Compound 23, 2-(butylamino)-1-(3,5-dichloro-4-hydroxyphenyl)-1-ethanol], the Emax at 10 µM in the assay with L6-myotubes [1] (setting [5]) and in the assay with L6-myotubes [2] (setting [6]) was less than 25% throughout.

`Oc1ccc(C(O)CNCCCC2CC2)cc1` (stereo not drawn) [Compound 30, 2-(3-cyclopropylpropylamino) -1-(p-hydroxyphenyl)-1-ethanol]: the Emax at 10 µM in the assay with L6-myotubes [1] (setting [5]) is less than 25%; in the assay with L6-myotubes [2] (setting [6]), greater than 75%.

With `CC1(C)CC[C@@H]([C@H](O)c2cccc(F)c2)N1` [Compound 144], the Emax at 10 µM in the assay on L6-myotubes [1] (setting [5]) and in the assay on L6-myotubes [2] (setting [6]) was less than 25% in each case.

Take `CN([C@H]1CC[C@H](CC(C)(C)NC[C@H](O)c2cncc(F)c2)CC1)S(C)(=O)=O` [Compound 521, (R)-2-{1,1-dimethyl-2-[(1r,4R)-4-(N-mesyl-N-methylamino)cyclohexyl]ethylamino}-1-(5-fluoro-3-pyridyl)-1-ethanol]: the Emax at 10 µM was less than 25% in the assay on L6-myotubes [1] (setting [3]) and 50 to 75% with L6-myotubes [2] (setting [4]).

For the compound `CC(=O)N[C@H]1CC[C@@H](C[C@@H]2CC[C@H]([C@@H](O)c3cccc(F)c3)N2)CC1` [Compound 483], the Emax at 10 µM in the assay on L6-myotubes [1] (setting [3]) and in the assay on L6-myotubes [2] (setting [4]) was less than 25% each time.

Regarding `CCCC1(CCC)CC[C@H]([C@@H](O)c2cccc(F)c2)N1` [Compound 158, (S)-[(R)-5,5-dipropyl-2-pyrrolidinyl](m-fluorophenyl)methanol], the Emax at 10 µM in the assay with L6-myotubes [1] (setting [5]) and in the assay on L6-myotubes [2] (setting [6]) was less than 25% in each case.

Turning to `CCC[C@@H](C)NC[C@H](O)c1ccc(F)cc1` [Compound 52, (R)-2-[(R)-1-methylbutylamino]-1-(p-fluorophenyl)-1-ethanol], the Emax at 10 µM is less than 25% in the assay with L6-myotubes [1] (setting [5]) and 50 to 75% with L6-myotubes [2] (setting [6]).

As to `CCC12CCC([C@@H](O)c3cccc(F)c3)(CC1)N2` [Compound 182, (S)-(m-fluorophenyl)(4-propyl-7-azabicyclo[[2.2.1]]hept-1-yl)methanol], the Emax at 10 µM in the assay on L6-myotubes [1] (setting [5]) and in the assay on L6-myotubes [2] (setting [6]) was less than 25% each time.

As to `CC(C)(C[C@H]1CC[C@H](N)CC1)NC[C@H](O)c1cccc(F)c1` [Compound 371], the values for the Emax at 10 µM with L6-myotubes [1] (setting [3]) and in the assay with L6-myotubes [2] (setting [4]) were less than 25% and greater than 75%, respectively.

Consider `CC12CC(C1)[C@@H]([C@@H](O)c1cncc(F)c1)N2` [Compound 221, (S)-{(S)-1-methyl-2-azabicyclo[[2.1.1]]hex-3-yl}(5-fluoro-3-pyridyl)methanol], for which the Emax at 10 µM in the assay with L6-myotubes [1] (setting [3]) was less than 25%; in the assay on L6-myotubes [2] (setting [4]), 50 to 75%.

As to `CC(C)(C[C@H]1CC[C@@H](C(=O)O)CC1)NC[C@H](O)c1cccc(F)c1` [Compound 331, (1S,4s)-4-{2-[(R)-2-(m-fluorophenyl)-2-hydroxyethylamino]-2-methylpropyl} cyclohexanecarboxylic acid], the Emax at 10 µM with L6-myotubes [1] (setting [3]) was less than 25%; in the assay on L6-myotubes [2] (setting [4]), 25 to 50%.

On to `CC(=O)N[C@H]1CC[C@@H](CC(C)(C)NC[C@H](O)c2cccnc2C)CC1` [Compound 436], for which the Emax at 10 µM is less than 25% in the assay on L6-myotubes [1] (setting [3]) and 50 to 75% with L6-myotubes [2] (setting [4]).

As to `COC(=O)[C@H]1CC[C@H](CC(C)(C)NC[C@H](O)c2cncc(F)c2)CC1` [Compound 354, methyl (1R,4r)-4-{2-[(R)-2-(5-fluoro-3-pyridyl)-2-hydroxyethylamino]-2-methylpropyl} cyclohexanecarboxylate], the Emax at 10 µM in the assay with L6-myotubes [1] (setting [3]) was less than 25%; in the assay on L6-myotubes [2] (setting [4]), 50 to 75%.

Consider `CC12CC(C1)[C@H]([C@@H](O)c1cccc(N)c1F)N2` [Compound 243, (S)-{(R)-1-methyl-2-azabicyclo[[2.1.1]]hex-3-yl}(3-amino-2-fluorophenyl)methanol], for which the Emax at 10 µM was less than 25% in the assay on L6-myotubes [1] (setting [3]) and 50 to 75% in the assay on L6-myotubes [2] (setting [4]).

Regarding `CC1(C)CC[C@H]([C@H](O)c2cccc(F)c2)N1` [Compound 110], the Emax at 10 µM in the assay on L6-myotubes [1] (setting [5]) is less than 25%; with L6-myotubes [2] (setting [6]), greater than 75%.

`CO[C@H]1CC[C@@H](CCNC[C@H](O)c2cccc(F)c2)CC1` [Compound 237, (R)-1-(m-fluorophenyl)-2-{2-[(1s,4S)-4-methoxycyclohexyl]ethylamino}-1-ethanol]: the Emax at 10 µM is less than 25% in the assay on L6-myotubes [1] (setting [3]) and 50 to 75% in the assay on L6-myotubes [2] (setting [4]).

For the compound `CCCCNC[C@H](O)c1csc(C(F)(F)F)n1` [Compound 72, (S)-2-(butylamino)-1-[2-(trifluoromethyl)-1,3-thiazol-4-yl]-1-ethanol], the Emax at 10 µM is less than 25% in the assay with L6-myotubes [1] (setting [5]) and 25 to 50% in the assay on L6-myotubes [2] (setting [6]).

As to `O[C@@H](c1cncc(F)c1)C12CCC(C/C=C/c3ccccc3)(CC1)N2` [Compound 529, (S)-{4-[(E)-3-phenyl-2-propenyl]-7-azabicyclo[[2.2.1]]hept-1-yl}(5-fluoro-3-pyridyl)methanol], the Emax at 10 µM is less than 25% with L6-myotubes [1] (setting [3]) and 25 to 50% in the assay with L6-myotubes [2] (setting [4]).

Turning to `CC1(C)CCC[C@H]([C@H](O)c2cccc(Cl)c2)N1` [Compound 165], the Emax at 10 µM was less than 25% in the assay with L6-myotubes [1] (setting [5]) and 25 to 50% in the assay on L6-myotubes [2] (setting [6]).

In the case of `CC1(C)CCC[C@H]([C@H](O)c2ccccc2Cl)N1` [Compound 162, (R)-[(R)-6,6-dimethyl-2-piperidyl](o-chlorophenyl)methanol], the Emax at 10 µM in the assay with L6-myotubes [1] (setting [5]) was less than 25%; in the assay on L6-myotubes [2] (setting [6]), 25 to 50%.

For the compound `CC(C)(CC[C@H]1CC[C@@H](C(=O)O)CC1)NC[C@H](O)c1cccc(F)c1` [Compound 352, (1S,4s)-4-{3-[(R)-2-(m-fluorophenyl)-2-hydroxyethylamino]-3-methylbutyl} cyclohexanecarboxylic acid], the Emax at 10 µM with L6-myotubes [1] (setting [3]) was less than 25%; in the assay with L6-myotubes [2] (setting [4]), 25 to 50%.

As to `CC1(C)C[C@H]([C@H](O)c2ccccc2F)N1` [Compound 204, (R)-[(R)-4,4-dimethyl-2-azetidinyl](o-fluorophenyl)methanol], the results for the Emax at 10 µM in the assay with L6-myotubes [1] (setting [3]) and in the assay with L6-myotubes [2] (setting [4]) were 25 to 50% and greater than 75%, respectively.

As to `COc1ccc(CC23CCC([C@H](O)c4cccc(F)c4)(CC2)N3)cc1` [Compound 401, (R)-(m-fluorophenyl){4-[(p-methoxyphenyl)methyl]-7-azabicyclo[[2.2.1]]hept-1-yl}methanol], the figures for the Emax at 10 µM in the assay with L6-myotubes [1] (setting [3]) and in the assay on L6-myotubes [2] (setting [4]) were less than 25% and greater than 75%, respectively.

Regarding `CC(C)(C[C@H]1CC[C@H](S(N)(=O)=O)CC1)NC[C@H](O)c1cncc(F)c1` [Compound 518, (1R,4r)-4-{2-[(R)-2-(5-fluoro-3-pyridyl)-2-hydroxyethylamino]-2-methylpropyl} cyclohexanesulfonamide], the Emax at 10 µM in the assay with L6-myotubes [1] (setting [3]) is less than 25%; in the assay on L6-myotubes [2] (setting [4]), 50 to 75%.

Consider `CC12CC(C1)[C@@H]([C@H](O)c1cncc(F)c1)N2` [Compound 223, (R)-{(S)-1-methyl-2-azabicyclo[[2.1.1]]hex-3-yl}(5-fluoro-3-pyridyl)methanol], for which the Emax at 10 µM was less than 25% in the assay with L6-myotubes [1] (setting [3]) and 25 to 50% in the assay with L6-myotubes [2] (setting [4]).

In the case of `CC(C)(NC[C@H](O)c1cccc(F)c1)[C@H]1CC[C@H](C(=O)O)CC1` [Compound 368, (1R,4r)-8-[(R)-2-(m-fluorophenyl)-2-hydroxyethylamino]-7-hydroxy-p-menthan-7-one], the Emax at 10 µM was less than 25% in the assay with L6-myotubes [1] (setting [3]) and 25 to 50% in the assay with L6-myotubes [2] (setting [4]).

Regarding `CC12CCC([C@H](O)c3ccccc3F)(CC1)N2` [Compound 181, (R)-(o-fluorophenyl)(4-methyl-7-azabicyclo[[2.2.1]]hept-1-yl)methanol], the Emax at 10 µM in the assay with L6-myotubes [1] (setting [5]) is less than 25%; in the assay with L6-myotubes [2] (setting [6]), greater than 75%.

On to `CCC[C@H]1CCC[C@H]([C@H](O)c2ccc(F)cc2)N1` [Compound 92], for which the Emax at 10 µM with L6-myotubes [1] (setting [5]) was less than 25%; with L6-myotubes [2] (setting [6]), 25 to 50%.

For `CC12CC(C1)[C@H]([C@@H](O)c1cccc(Cl)c1)N2` [Compound 208], the Emax at 10 µM with L6-myotubes [1] (setting [3]) was less than 25%; with L6-myotubes [2] (setting [4]), 50 to 75%.

For `CC(C)(CC[C@H]1CC[C@H](O)CC1)NC[C@H](O)c1cncc(F)c1` [Compound 289, (R)-2-{1,1-dimethyl-3-[(1r,4S)-4-hydroxycyclohexyl]propylamino}-1-(5-fluoro-3-pyridyl)-1-ethanol], the Emax at 10 µM in the assay with L6-myotubes [1] (setting [3]) is less than 25%; in the assay on L6-myotubes [2] (setting [4]) it was 25 to 50%.

Regarding `O[C@@H](c1ccccc1F)C12CCC(CCc3cccnc3)(CC1)N2` [Compound 444, (R)-(o-fluorophenyl){4-[2-(3-pyridyl)ethyl]-7-azabicyclo[[2.2.1]]hept-1-yl}methanol], the Emax at 10 µM with L6-myotubes [1] (setting [3]) lay in the range of 50 to 75%. Besides, the “Biological example 2 (GU)” value with L6-myotubes [2] (setting [4]) is listed as “+++ (If a compound at 10 μM shows activity of more than 75% of that of isoproterenol at 10 μM, the activity is denoted with +++)”.

As for `CO[C@H]1CC[C@H](C(C)(C)NC[C@H](O)c2cncc(F)c2)CC1` [Compound 240, (R)-1-(5-fluoro-3-pyridyl)-2-{1-methyl-1-[(1r,4R)-4-methoxycyclohexyl]ethylamino}-1-ethanol], the Emax at 10 µM is less than 25% in the assay on L6-myotubes [1] (setting [3]) and greater than 75% in the assay with L6-myotubes [2] (setting [4]).
